{
  "source": "patent US20030215406A1",
  "about": "“Cosmetic or dermatological preparations containing aminogaunidine, derivatives thereof or structural analogs thereof” (Beiersdorf AG, priority 2000, published 2003)",
  "origin": "cited, not measured here",
  "data": [
    {"molecule": "N=C(N)NN", "note": "[Aminoguanidine]", "values": [
      {"measurement": "solubility in alcohol", "setting": "solvent: alcohol", "value": "soluble"},
      {"measurement": "solubility in ether", "setting": "solvent: ether", "value": "insoluble"},
      {"measurement": "solubility in water", "setting": "solvent: water", "value": "soluble"}
    ]}
  ]
}
